Test [1] deals with experimental asthma model (airway resistance). The experiment in a line: Effect on experimental asthma model in guinea pigs (airway resistance). Type of test: in vivo, guinea pigs (male hartley). The conditions noted are these: 50 mg/kg oral (TABLE 6); for inhibition in vivo at 50 mg/kg: Cavia porcellus, po, 0.5 h. On the procedure: Effect on experimental asthma model in guinea pigs
The asthma is typical allergic disease and we carried out this pharmacological test by well known experimental asthma model in guinea pigs in order to comfirm that the compounds of the present invention suppress the asthma. In the following, the method of the pharmacological test will be explained.
Method: Male hartley guinea pigs were immunized by intraperitoneal injection of saline (1ml) containing 5 mg of ovalbumine (OVA) three times at interval of one week. 2 weeks after final immunization, the animals were challenged by inhalation of 1% OVA-saline solution for 1 minute and then the airway resistance of the animals were measured for 30 minutes with PULMOS-1 (Medical Interface Project Station Inc.) after the inhalation. The compounds of the present invention (test compounds) suspended in 0.5% CMCNa were given orally at a dose of 50 mg/kg. As positive control group, Disodium Cromoglicate (DSCG), well known anti-allergic agent, in saline were injected at a dose of 20 mg/kg into the vein of the animals. As vehicle control group, only 0.5% CMCNa solution were given orally. The inhibition (%) of the airway resistance in vehicle control group was calculated according to equation 5 and the result was shown in TABLE 6. Each experimental group consisted of 5 guinea pigs. [formula]
A: Maximum airway resistance in vehicle control group
B: Maximum airway resistance in test compounds group or positive control group

Test [2] relates to contact dermatitis induced by picryl chloride. The experiment in a line: Effect on contact dermatitis induced by picryl chloride in mice. The following applies: 50 mg/kg oral, 1 hour before and 16 hours after challenge, 24 hours after challenge; for inhibition in vivo at 50 mg/kg: Mus musculus, po, 24 h, read-out: Inhibition (%) against the increase of ear thickness. Type of test: in vivo. Here is the method:
Effect on contact dermatitis induced by picryl chloride in mice
The delayed type hypersensitization is inhibited by steroid drugs,but can not be effected by known anti-allergic agents. In the following, the method of the pharmacological test will be explained.
Method: Mice, shaved their abdominal skin on previous day, were immunized by applying 0.1 ml of acetone containing 7 mg of picryl chloride to the skin of the abdomen. 7 days after immunization, the thickness of the ear was measured with a dial thickness gauge, then mice were challenged by painting 5 μl of 1% picryl chloride olive oil solution to each side skin of left ear. 24 hours after challenge, the thickness of the left ear was measured again and the increase (%) of thickness was calculated according to equation 2. The compounds of the present invention (test compounds) suspended in 0.5% CMCNa were forcibly administered orally at a dose of 50 mg/kg at 1 hour before and 16 hours after challenge. As vehicle control group, only 0.5% CMCNa solution were administered orally, and as positive control group, Prednisolone, steroid hormone, and Tranilast were administered orally at the doses of 10 mg/kg and 100 mg/kg, respectively.
Increase (%)=(A-B)/B×100 (Equation 2)
A: thickness of the ear at 24 hours after challenge
B: thickness of the ear before challenge
Inhibition (%)=(C-D)/C×100 (equation 3)
C: The increase (%) in vehicle control group
D: The increase (%) in test compounds group or positive control group

Test [3] has as its system homologous passive cutaneous anaphylaxis (PCA) reaction. The test can be described thus: Effect on homologous passive cutaneous anaphylaxis (PCA) reaction in rats. The following applies: 50 mg/kg oral, 1 hour before challenge (TABLE 2); for inhibition in vivo at 50 mg/kg: Rattus norvegicus, po, 0.5 h. It is filed as in vivo, rats (male wistar). Here is the method:
Effect on homologous passive cutaneous anaphylaxis (PCA) reaction in rats.
This experimental animal model is caused by immediate type allergic reaction namely, antigen-antibody reaction. In the following, the method of this pharmacological test will be explained.
Method: Male wistar rats (9 weeks old) were intradermally administered 0.05 ml of anti-serum against dinitrophenylated ascaris (DNP-As) into two sites on the shaved dorsal skin. 48 hours later, 7-glycosyloxybenzopyran derivatives (test compounds) suspended in 0.5% sodium carboxymethylcellulose (CMCNa) were given orally at a dose of 50 mg/kg to the animals. One hour after administration of Test compounds, the animals were induced anaphylaxis by injection of saline (1 ml) dissolving 5 mg of Evans Blue and 1 mg of Trinitrophenylated ascaris (TNP-As) into the tail vein of the animals. 30 minutes after induction of anaphylaxis, animals were anesthetized by ether and killed by bleeding, and were flayed dorsal skin. The determination of extravasated dye was performed according to the method of Katayama et al. (Microbiol. Immunol., Vol.22, P 89-101, 1978). As vehicle control group, only 0.5% CMCNa solution was administered orally, and as positive control group, Tranilast suspended in 0.5% CMCNa was administered orally at a dose of 100 mg/kg to the animals with the same method as the test compounds groups. Each experimental group consisted of 5 rats. [formula]

We go through 23 molecules from patent publication US5580552A, “7-glycosyloxybenzopyran derivative and antiallergic agent containing the derivative as active ingredient” (priority 1994, dated 1996).

Regarding `C=COc1c(O)c2ccc(O[C@@H]3O[C@H](CO)[C@@H](O)[C@H](O)[C@H]3O)cc2oc1=O` [compound 44], the inhibition in vivo at 50 mg/kg in test [1] is 65.1%; in test [2], 56.3%; in test [3], 54.5%.

Take `C=COc1c(O)c(=O)oc2cc(O[C@@H]3O[C@H](CO)[C@@H](O)[C@H](O)[C@H]3O)ccc12` [compound 115]: the values for the inhibition in vivo at 50 mg/kg in test [1], in test [2] and in test [3] were 53.1%, 40.2% and 42.2%, respectively.

As for `COc1c(O)c(=O)oc2cc(O[C@@H]3O[C@H](CO)[C@@H](O)[C@H](O)[C@H]3O)ccc12` [compound 153], in test [1], the “Inhibition (%) of the airway resistance” value is on record as 54.3%. The “Inhibition (%) against the increase of ear thickness” value (“Inhibition (%) against the increase” for short) in test [2] came out at 44.7%. Moreover, the “Inhibition (%) of PCA reaction” value in test [3] is 42.4%.

Take `CCCCCCOc1c(O)c(=O)oc2cc(O[C@@H]3O[C@H](CO)[C@H](O)[C@H](O)[C@H]3O)ccc12` [compound 21, 3-hydroxy-4-hexyloxy-7-(β-D-galactopyranosyloxy)-2H-1-benzopyran-2-one]: the inhibition in vivo at 50 mg/kg stood at 63.1% in test [1], 48.9% in test [2] and 45.2% in test [3].

Consider `CCC=CCCOc1c(O)c2ccc(O[C@@H]3O[C@H](CO)[C@@H](O)[C@H](O)[C@H]3O)cc2oc1=O` [compound 45], for which the inhibition in vivo at 50 mg/kg in test [1] worked out at 62.3%; in test [2] it was 54.2%; in test [3] it was 55.2%.

As for `CC(C)Oc1c(O)c(=O)oc2cc(O[C@@H]3O[C@H](CO)[C@@H](O)[C@H](O)[C@H]3O)ccc12` [compound 156], in test [1], the “Inhibition (%) of the airway resistance” value was 48.2%. In addition, the “Inhibition (%) against the increase” value in test [2] turned out to be 43.2%. In test [3], the “Inhibition (%) of PCA reaction” value came out at 42.1%.

For `COc1c(O)c(=O)oc2cc(O[C@@H]3O[C@H](CO)[C@@H](O)[C@H](O)[C@H]3O)ccc12` [compound 109], the inhibition in vivo at 50 mg/kg in test [1] turned out to be 53.1%; in test [2] it was 43.8%; in test [3], 42.1%.

As to `CCCCCCOc1c(OC(C)=O)c(=O)oc2cc(O[C@@H]3O[C@H](COC(C)=O)[C@H](OC(C)=O)[C@H](OC(C)=O)[C@H]3OC(C)=O)ccc12` [compound 15, 3-acetoxy-4-hexyloxy-7-(tetra-O-acetyl-β-D-galactopyranosyloxy)-2H-1-benzopyran-2-one], the inhibition in vivo at 50 mg/kg was 42.1% in test [1], 41.2% in test [2] and 40.1% in test [3].

Take `CC1CCC(Oc2c(O)c3ccc(O[C@@H]4O[C@H](CO)[C@H](O)[C@H](O)[C@H]4O)cc3oc2=O)CC1` (stereo partly drawn) [compound 92]: the inhibition in vivo at 50 mg/kg came out at 65.2% in test [1], 57.2% in test [2] and 58.9% in test [3].

As to `CCCCCCCCCCOc1c(O)c2ccc(O[C@@H]3O[C@H](CO)[C@@H](O)[C@H](O)[C@H]3O)cc2oc1=O` [compound 40], the inhibition in vivo at 50 mg/kg came to 73.1% in test [1], 62.1% in test [2] and 57.3% in test [3].

Regarding `CC(C)=CCC/C(C)=C/COc1c(O)c2ccc(O[C@@H]3O[C@H](CO)[C@@H](O)[C@H](O)[C@H]3O)cc2oc1=O` [compound 46], the inhibition in vivo at 50 mg/kg in test [1] is 63.4%; in test [2], 57.6%; in test [3], 54.3%.

For `CCCCOc1c(O)c(=O)oc2cc(O[C@@H]3O[C@H](CO)[C@@H](O)[C@H](O)[C@H]3O)ccc12` [compound 110], the inhibition in vivo at 50 mg/kg in test [1] stood at 56.5%; in test [2], 42.9%; in test [3], 41.4%.

Regarding `CC(C)Oc1c(O)c(=O)oc2cc(O[C@H]3O[C@H](CO)[C@@H](O)[C@H](O)[C@@H]3O)ccc12` [compound 135], the inhibition in vivo at 50 mg/kg was 47.1% in test [1], 44.6% in test [2] and 40.3% in test [3].

Regarding `CCCCCCOc1c(O)c2ccc(O[C@H]3O[C@H](CO)[C@@H](O)[C@H](O)[C@@H]3O)cc2oc1=O` [compound 63], the inhibition in vivo at 50 mg/kg in test [1] stood at 53.2%; in test [2], 53.1%; in test [3], 55.7%.

In the case of `CC(=O)Oc1c(O)c2ccc(O[C@@H]3O[C@H](CO)[C@@H](O)[C@H](O)[C@H]3O)cc2oc1=O` [compound 11, 3-acetoxy-4-hydroxy-7-(β-D-glucopyranosyloxy)-2H-1-benzopyran-2-one], the inhibition in vivo at 50 mg/kg in test [1] is 45.7%; in test [2], 44.3%; in test [3] it was 43.2%.

Turning to `CC(C)=CCC/C(C)=C/COc1c(O)c(=O)oc2cc(O[C@@H]3O[C@H](CO)[C@@H](O)[C@H](O)[C@H]3O)ccc12` [compound 160], the “Inhibition (%) of the airway resistance” value in test [1] is 58.9%. The “Inhibition (%) against the increase” value in test [2] worked out at 46.7%. In addition, the “Inhibition (%) of PCA reaction” value in test [3] came to 43.9%.

Regarding `CCCCCCCCOc1c(O)c2ccc(O[C@H]3O[C@H](CO)[C@@H](O)[C@H](O)[C@@H]3O)cc2oc1=O` [compound 64], the inhibition in vivo at 50 mg/kg in test [1] came to 57.2%; in test [2] it was 52.6%; in test [3] it was 54.9%.

Consider `CC(C)=CCC/C(C)=C/COc1c(O)c2ccc(O[C@@H]3O[C@H](CO)[C@H](O)[C@H](O)[C@H]3O)cc2oc1=O` [compound 95], for which the inhibition in vivo at 50 mg/kg in test [1] amounted to 63.2%; in test [2] it was 55.8%; in test [3], 54.2%.

`CCCCCCCCCCOc1c(O)c(=O)oc2cc(O[C@@H]3O[C@H](CO)[C@@H](O)[C@H](O)[C@H]3O)ccc12` [compound 111]: the inhibition in vivo at 50 mg/kg in test [1] came to 61.3%; in test [2], 41.2%; in test [3], 43.1%.

For the molecule `CC(C)Oc1c(O)c2ccc(O[C@@H]3O[C@H](CO)[C@@H](O)[C@H](O)[C@H]3O)cc2oc1=O` [compound 42], the inhibition in vivo at 50 mg/kg in test [1] stood at 68.5%; in test [2], 58.3%; in test [3], 56.4%.

On to `O=c1oc2cc(O[C@H]3O[C@H](CO)[C@@H](O)[C@H](O)[C@@H]3O)ccc2c(O)c1OCc1ccccc1` [compound 72], for which the inhibition in vivo at 50 mg/kg in test [1] is 52.1%; in test [2], 42.3%; in test [3], 45.2%.

`CC(C)Oc1c(O)c2ccc(O[C@@H]3O[C@H](CO)[C@H](O)[C@H](O)[C@H]3O)cc2oc1=O` [compound 91]: the figures for the inhibition in vivo at 50 mg/kg in test [1], in test [2] and in test [3] were 69.5%, 59.3% and 55.5%, respectively.

As for `CCCCOc1c(O)c2ccc(O[C@@H]3O[C@H](CO)[C@@H](O)[C@H](O)[C@H]3O)cc2oc1=O` [compound 37], the inhibition in vivo at 50 mg/kg amounted to 68.2% in test [1], 53.9% in test [2] and 55.1% in test [3].
